The record followed here is patent US20250195484A1, “CEREBLON LIGANDS AND USES THEREOF” (priority 2022, published 2025).

Assay type in all cases: cell-based
Assay [1] has as its target T1, STAT3 (Homo sapiens, UniProt P40763).
T1 construct: host or cells: HeLa (STAT3-HiBiT CRISPR knock-in clone)
The experiment in a line: STAT3 degradation HiBiT assay (STAT3-HIBIT KI HeLa). As to conditions: STAT3-HIBIT KI HeLa cells, 24 hours. On the procedure: STAT3-HIBIT KI HeLa cell line was purchased from Promega. This cell line is a clone created by using CRISPR-Cas9 to fuse HiBIT to the 3′ end of STAT3 in HeLa cells. DMEM medium and FBS were purchased from Gibco/Thermo Fisher Scientific. STAT3 degradation was determined based on quantification of luminescent signal using Nano-Glo HiBIT Lytic Detection System. In a typical procedure, cells seeded at 20000 cells per well in 96-well white plates (Corning) were incubated with serially diluted compounds for 24 hours at 37° C. with 5% CO2. At the end of treatment, Nano-Glo HiBIT Lytic Detection reagents was added to the wells and luminescence was acquired on TECAN PSARK plate reader. Untreated cells were used as control. Data points were fit with a four-parameter equation to generate a concentration-response curve. IC50 values were calculated using a nonlinear regression analysis of the mean±SD from triplicate.

For assay [2], the system named is MOLM-16. Put plainly: Cell viability assay (CellTiter-Glo 2.0), MOLM-16. As to conditions: MOLM16; MOLM-16 cells.
Assay [3] relates to SU-DHL-1. The experiment in a line: Cell viability assay (CellTiter-Glo 2.0), SU-DHL-1. As to conditions: Homo sapiens, 96 h; SU-DHL-1 cells, 4 days. The method, then: SU-DHL-1 and SUP-M2 cell viability was determined by CellTiter-Glo 2.0 Cell Viability Assay (Promega). […] In a typical procedure, cells seeded at 1000 cells per well in 384-well white plates (Corning) were incubated with serially diluted compounds for 4 days at 37° C. with 5% CO2. At the end of treatment, CellTiter-Glo 2.0 was added to the wells and luminescence was acquired on TECAN PSARK plate reader. Untreated cells were used as control. Data points were fit with a four-parameter equation to generate a concentration-response curve. IC50 values were calculated using a nonlinear regression analysis of the mean±SD from triplicate.

Assay [4] deals with T2, CBP (Homo sapiens, UniProt Q92793).
T2 construct: endogenous in cells; host or cells: 22Rv1
The experiment in a line: CBP degradation, western blot, 22Rv1. As to conditions: 22Rv1, 5 h. The method, then:
(§1) WesternT Blot Analysis. Western blot analysis was performed essentially as described previously. The cells treated with indicated compounds were lysed in Radioimmunoprecipitation Assay Protein Lysis and Extraction Buffer (25 mmol/L Tris.HCl, pH 7.6, 150 mmol/L NaCl, 1% Nonidet P-40, 1% sodium deoxycholate, and 0.1% sodium dodecyl sulfate) containing proteinase inhibitor cocktail (Roche Diagnostics, Mannheim, Germany). Equal amounts of total protein were electrophoresed through 10% SDS-polyacrylamide gels after determination of protein concentration by BCA assay (Fisher Scientific, Pittsburgh, PA). The separated protein bands were transferred onto PVDF membranes (GE Healthcare Life Sciences, Marlborough, MA) and blotted against different antibodies, as indicated. The blots were scanned, and the band intensities were quantified using GelQuant.NET software provided by biochemlabsolutions.com. The relative mean intensity of target proteins was expressed after normalization to the intensity of glyceraldehyde-3-phosphate dehydrogenase bands.

Assay [5] addresses T3, P300 (Homo sapiens, UniProt Q09472).
T3 construct: endogenous in cells; host or cells: 22Rv1
Put plainly: P300 degradation, western blot, 22Rv1. As to conditions: 22Rv1, 5 h. The method, then:
as §1

T3 sequence (Q09472 whole entry): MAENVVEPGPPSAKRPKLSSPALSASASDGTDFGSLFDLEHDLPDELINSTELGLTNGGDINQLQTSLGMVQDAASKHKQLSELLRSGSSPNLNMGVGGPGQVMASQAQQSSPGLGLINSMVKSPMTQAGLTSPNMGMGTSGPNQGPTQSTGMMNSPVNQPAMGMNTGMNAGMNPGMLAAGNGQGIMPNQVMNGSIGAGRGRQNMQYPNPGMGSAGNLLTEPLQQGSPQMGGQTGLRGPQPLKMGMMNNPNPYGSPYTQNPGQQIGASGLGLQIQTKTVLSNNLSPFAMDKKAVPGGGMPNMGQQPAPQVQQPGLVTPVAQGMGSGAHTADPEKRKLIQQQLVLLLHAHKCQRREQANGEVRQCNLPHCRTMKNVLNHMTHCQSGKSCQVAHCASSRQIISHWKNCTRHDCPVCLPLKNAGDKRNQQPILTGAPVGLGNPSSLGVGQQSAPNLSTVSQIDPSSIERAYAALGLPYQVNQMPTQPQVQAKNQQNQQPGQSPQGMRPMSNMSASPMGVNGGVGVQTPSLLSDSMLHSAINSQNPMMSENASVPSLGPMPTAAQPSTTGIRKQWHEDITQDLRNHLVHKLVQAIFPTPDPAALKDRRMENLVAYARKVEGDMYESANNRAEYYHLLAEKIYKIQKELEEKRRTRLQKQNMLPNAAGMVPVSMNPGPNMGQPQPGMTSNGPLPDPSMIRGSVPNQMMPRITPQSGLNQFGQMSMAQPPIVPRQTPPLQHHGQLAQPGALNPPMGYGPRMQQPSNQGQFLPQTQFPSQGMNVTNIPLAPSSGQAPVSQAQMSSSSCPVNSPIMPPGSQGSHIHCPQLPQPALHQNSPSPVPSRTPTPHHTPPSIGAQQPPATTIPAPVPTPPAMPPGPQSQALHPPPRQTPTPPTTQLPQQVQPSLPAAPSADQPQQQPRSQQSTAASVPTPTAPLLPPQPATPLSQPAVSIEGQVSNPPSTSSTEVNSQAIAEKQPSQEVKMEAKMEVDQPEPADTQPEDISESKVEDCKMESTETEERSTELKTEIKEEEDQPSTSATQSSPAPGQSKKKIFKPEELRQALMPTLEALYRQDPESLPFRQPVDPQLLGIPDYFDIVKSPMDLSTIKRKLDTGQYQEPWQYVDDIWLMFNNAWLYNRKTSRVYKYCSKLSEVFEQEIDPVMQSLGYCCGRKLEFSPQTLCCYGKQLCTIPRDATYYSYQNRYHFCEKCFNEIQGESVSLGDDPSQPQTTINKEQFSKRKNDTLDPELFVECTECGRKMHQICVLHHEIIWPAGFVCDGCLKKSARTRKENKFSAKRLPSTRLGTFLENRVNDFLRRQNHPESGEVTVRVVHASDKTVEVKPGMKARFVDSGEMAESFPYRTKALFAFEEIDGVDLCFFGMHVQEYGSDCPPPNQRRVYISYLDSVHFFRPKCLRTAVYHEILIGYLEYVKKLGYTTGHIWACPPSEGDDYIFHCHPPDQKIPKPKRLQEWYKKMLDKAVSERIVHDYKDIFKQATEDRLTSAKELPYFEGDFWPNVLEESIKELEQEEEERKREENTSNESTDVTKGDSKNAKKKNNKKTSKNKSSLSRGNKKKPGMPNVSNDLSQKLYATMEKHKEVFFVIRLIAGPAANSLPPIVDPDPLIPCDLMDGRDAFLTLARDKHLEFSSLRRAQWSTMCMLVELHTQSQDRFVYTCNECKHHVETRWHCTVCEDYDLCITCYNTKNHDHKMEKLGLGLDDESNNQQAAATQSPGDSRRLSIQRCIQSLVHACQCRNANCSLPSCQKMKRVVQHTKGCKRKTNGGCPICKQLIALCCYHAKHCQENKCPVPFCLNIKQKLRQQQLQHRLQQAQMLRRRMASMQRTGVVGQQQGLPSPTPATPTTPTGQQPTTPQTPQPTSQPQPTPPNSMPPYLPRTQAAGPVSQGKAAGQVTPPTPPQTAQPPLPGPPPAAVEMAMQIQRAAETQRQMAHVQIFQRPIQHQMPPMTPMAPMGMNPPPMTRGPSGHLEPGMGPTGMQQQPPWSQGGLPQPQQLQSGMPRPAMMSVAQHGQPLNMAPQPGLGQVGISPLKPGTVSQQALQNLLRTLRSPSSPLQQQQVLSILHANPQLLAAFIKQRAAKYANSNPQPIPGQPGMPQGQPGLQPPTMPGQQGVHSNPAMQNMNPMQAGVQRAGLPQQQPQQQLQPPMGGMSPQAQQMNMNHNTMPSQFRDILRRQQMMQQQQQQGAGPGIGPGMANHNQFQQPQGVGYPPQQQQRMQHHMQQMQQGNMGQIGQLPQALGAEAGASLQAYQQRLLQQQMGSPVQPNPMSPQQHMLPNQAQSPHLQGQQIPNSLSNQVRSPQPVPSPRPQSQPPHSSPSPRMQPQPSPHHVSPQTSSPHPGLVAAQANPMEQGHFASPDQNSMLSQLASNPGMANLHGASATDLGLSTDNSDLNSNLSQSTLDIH
T1 sequence (P40763 whole entry): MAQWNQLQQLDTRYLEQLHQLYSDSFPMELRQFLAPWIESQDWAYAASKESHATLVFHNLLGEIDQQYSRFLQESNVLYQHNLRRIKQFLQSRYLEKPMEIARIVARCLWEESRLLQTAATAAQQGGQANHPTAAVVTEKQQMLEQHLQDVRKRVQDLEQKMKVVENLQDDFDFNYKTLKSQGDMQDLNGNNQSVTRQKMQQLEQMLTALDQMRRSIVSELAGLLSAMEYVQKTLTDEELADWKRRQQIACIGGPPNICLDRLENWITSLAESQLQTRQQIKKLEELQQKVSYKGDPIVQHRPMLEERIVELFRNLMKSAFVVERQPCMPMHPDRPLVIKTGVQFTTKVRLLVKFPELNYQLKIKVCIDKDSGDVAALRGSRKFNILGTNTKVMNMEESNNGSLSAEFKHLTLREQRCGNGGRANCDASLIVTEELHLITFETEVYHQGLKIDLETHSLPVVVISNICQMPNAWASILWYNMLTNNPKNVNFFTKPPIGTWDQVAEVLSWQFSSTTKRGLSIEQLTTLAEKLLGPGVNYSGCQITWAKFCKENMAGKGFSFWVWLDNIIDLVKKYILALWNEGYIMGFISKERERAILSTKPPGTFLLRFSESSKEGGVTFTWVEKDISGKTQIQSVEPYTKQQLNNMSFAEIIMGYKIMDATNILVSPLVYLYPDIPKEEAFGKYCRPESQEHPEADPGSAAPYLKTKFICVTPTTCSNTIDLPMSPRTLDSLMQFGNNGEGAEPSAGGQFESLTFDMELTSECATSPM

As to `CS(=O)(=O)c1cccc(OC[C@H](CCC(N)=O)NC(=O)[C@@H]2CC[C@@H]3CCN(C(=O)CCN4CCC5(CC4)COc4c5ccc5c4CN([C@H]4CCC(=O)NC4=O)C5=O)C[C@H](NC(=O)c4cc5cc(C(F)(F)P(=O)(O)O)ccc5s4)C(=O)N32)c1` [STD 69, ((2-(((5S,8S,10aR)-8-(((S)-5-amino-1-(3-(methylsulfonyl)phenoxy)-5-oxopentan-2-yl)carbamoyl)-3-(3-(7-((S)-2,6-dioxopiperidin-3-yl)-6-oxo-7,8-dihydro-2H,6H-spiro[furo[2,3-e]isoindole-3,4′-piperidin]-1′-yl)propanoyl)-6-oxodecahydropyrrolo[1,2-a][1,5]diazocin-5-yl)carbamoyl)benzo[b]thiophen-5-yl)difluoromethyl)phosphonic acid], the DC50 in assay [1] was 1 to 10 µM. Besides, the maximal degradation (Dmax) in assay [1] lay in the range of 60 to 80%. Also, the IC50 in assay [2] and in assay [3] was 1 to 10 µM in each case.
In assay [1], `NC(=O)CC[C@H](NC(=O)[C@@H]1CC[C@@H]2CCN(C(=O)CCCCN3CCC4(CC3)COc3c4ccc4c3CN([C@H]3CCC(=O)NC3=O)C4=O)C[C@H](NC(=O)c3cc4cc(C(F)(F)P(=O)(O)O)ccc4s3)C(=O)N21)C(=O)NCc1cccc(Cl)c1` [STD 70, ((2-(((5S,8S,10aR)-8-(((S)-5-amino-1-((3-chlorobenzyl)amino)-1,5-dioxopentan-2-yl)carbamoyl)-3-(5-(7-((S)-2,6-dioxopiperidin-3-yl)-6-oxo-7,8-dihydro-2H,6H-spiro[furo[2,3-e]isoindole-3,4′-piperidin]-1′-yl)pentanoyl)-6-oxodecahydropyrrolo[1,2-a][1,5]diazocin-5-yl)carbamoyl)benzo[b]thiophen-5-yl)difluoromethyl)phosphonic acid] displayed a DC50 of 0.1 to 1 µM. In assay [1], this molecule returned a Dmax of no less than 80%. For the same molecule, the IC50 in assay [2] and in assay [3] was 1 to 10 µM throughout.
In assay [1], `CC(C)S(=O)(=O)c1ccc(CNC(=O)[C@H](CCC(N)=O)NC(=O)[C@@H]2CC[C@@H]3CCN(C(=O)CCCCN4CCC5(CC4)COc4c5ccc5c4CN([C@H]4CCC(=O)NC4=O)C5=O)C[C@H](NC(=O)c4cc5cc(C(F)(F)P(=O)(O)O)ccc5s4)C(=O)N32)cc1` [STD 80, ((2-(((5S,8S,10aR)-8-(((S)-5-amino-1-((4-(isopropylsulfonyl)benzyl)amino)-1,5-dioxopentan-2-yl)carbamoyl)-3-(5-(7-((S)-2,6-dioxopiperidin-3-yl)-6-oxo-7,8-dihydro-2H,6H-spiro[furo[2,3-e]isoindole-3,4′-piperidin]-1′-yl)pentanoyl)-6-oxodecahydropyrrolo[1,2-a][1,5]diazocin-5-yl)carbamoyl)benzo[b]thiophen-5-yl)difluoromethyl)phosphonic acid] gave a DC50 of 0.1 to 1 µM and a Dmax of no less than 80%. Besides, the IC50 in assay [2] lay within 0.1 to 1 µM. The molecule further registered an IC50 in assay [3] of 1 to 10 µM.
Regarding `CC(=O)N1CCc2c(c(N3CCCc4cc(-c5cnn(C)c5)c(C(F)F)cc43)nn2[C@H]2CC[C@H](C(=O)N3CCC4(CC3)COc3c4ccc4c3CN([C@H]3CCC(=O)NC3=O)C4=O)CC2)C1` [CPD-005, (S)-3-(1′-((1r,4S)-4-(5-acetyl-3-(7-(difluoromethyl)-6-(1-methyl-1H-pyrazol-4-yl)-3,4-dihydroquinolin-1(2H)-yl)-4,5,6,7-tetrahydro-1H-pyrazolo[4,3-c]pyridin-1-yl)cyclohexane-1-carbonyl)-6-oxo-6,8-dihydro-2H,7H-spiro[furo[2,3-e]isoindole-3,4′-piperidin]-7-yl)piperidine-2,6-dione], in assay [4], the “CBP Degradation DCmax” value was “A (A (≥90%))” and the 50% degradation concentration (DC50) was less than 0.0001 µM. Moreover, in assay [5], the half-maximal degradation concentration (DC50) was less than 0.0001 µM and the “P300 Degradation DCmax” value was “A (A (≥90%))”.
Consider `CC(=O)N1CCc2c(c(N3CCCc4cc(-c5cnn(C)c5)c(C(F)F)cc43)nn2[C@H]2CC[C@@H](C(=O)N3CCC4(CC3)COc3c4ccc4c3CN([C@H]3CCC(=O)NC3=O)C4=O)CC2)C1` [CPD-006, (S)-3-(1′-((1s,4R)-4-(5-acetyl-3-(7-(difluoromethyl)-6-(1-methyl-1H-pyrazol-4-yl)-3,4-dihydroquinolin-1(2H)-yl)-4,5,6,7-tetrahydro-1H-pyrazolo[4,3-c]pyridin-1-yl)cyclohexane-1-carbonyl)-6-oxo-6,8-dihydro-2H,7H-spiro[furo[2,3-e]isoindole-3,4′-piperidin]-7-yl)piperidine-2,6-dione], for which, in assay [4], the “CBP Degradation DCmax” value is listed as “A (A (≥90%))” and the DC50 is less than 0.0001 µM. In assay [5], the DC50 lay within 0.0001 to 0.001 µM and the “P300 Degradation DCmax” value is “A (A (≥90%))”.
On to `CC(C)S(=O)(=O)c1ccc(CNC(=O)[C@H](CCC(N)=O)NC(=O)[C@@H]2CC[C@@H]3CCN(C(=O)CCCCN4CCC5(CC4)COc4c5ccc5c4CN([C@H]4CCC(=O)NC4=O)C5=O)C[C@H](NC(=O)c4cc5cc(C(=O)P(=O)(O)O)ccc5[nH]4)C(=O)N32)cc1` [STD 86, (2-(((5S,8S,10aR)-8-(((S)-5-amino-1-((4-(isopropylsulfonyl)benzyl)amino)-1,5-dioxopentan-2-yl)carbamoyl)-3-(5-(7-((S)-2,6-dioxopiperidin-3-yl)-6-oxo-7,8-dihydro-2H,6H-spiro[furo[2,3-e]isoindole-3,4′-piperidin]-1′-yl)pentanoyl)-6-oxodecahydropyrrolo[1,2-a] [1,5]diazocin-5-yl)carbamoyl)-1H-indole-5-carbonyl)phosphonic acid], for which, in assay [1], the DC50 lay in the range of 0.1 to 1 µM and the Dmax is no less than 80%. In addition, in assay [2], the IC50 lay within 0.1 to 1 µM. Further, the IC50 in assay [3] was 1 to 10 µM.
In assay [1], `CCS(=O)(=O)c1ccc(CNC(=O)[C@H](CCC(N)=O)NC(=O)[C@@H]2CC[C@@H]3CCN(C(=O)CCCCN4CCC5(CC4)COc4c5ccc5c4CN([C@H]4CCC(=O)NC4=O)C5=O)C[C@H](NC(=O)c4cc5cc(C(=O)P(=O)(O)O)ccc5[nH]4)C(=O)N32)cc1` [STD 85, (2-(((5S,8S,10aR)-8-(((S)-5-amino-1-((4-(ethylsulfonyl)benzyl)amino)-1,5-dioxopentan-2-yl)carbamoyl)-3-(5-(7-((S)-2,6-dioxopiperidin-3-yl)-6-oxo-7,8-dihydro-2H,6H-spiro[furo[2,3-e]isoindole-3,4′-piperidin]-1′-yl)pentanoyl)-6-oxodecahydropyrrolo[1,2-a] [1,5]diazocin-5-yl)carbamoyl)-1H-indole-5-carbonyl)phosphonic acid] showed a DC50 of 0.1 to 1 µM and a Dmax of no less than 80%. In addition, the IC50 in assay [2] fell in the range of 0.1 to 1 µM. In assay [3], this molecule showed a half-inhibitory concentration (IC50) of 1 to 10 µM.
Turning to `CC(=O)N1CCc2c(c(N3CCCc4cc(-c5cnn(C)c5)c(C(F)F)cc43)nn2C2CCC(N3CCC4(CC3)COc3c4ccc4c3CN([C@H]3CCC(=O)NC3=O)C4=O)CC2)C1` (stereo partly drawn) [CPD-003, (S)-3-(1′-(4-(5-acetyl-3-(7-(difluoromethyl)-6-(1-methyl-1H-pyrazol-4-yl)-3,4-dihydroquinolin-1(2H)-yl)-4,5,6,7-tetrahydro-1H-pyrazolo[4,3-c]pyridin-1-yl)cyclohexyl)-6-oxo-6,8-dihydro-2H,7H-spiro[furo[2,3-e]isoindole-3,4′-piperidin]-7-yl)piperidine-2,6-dione], in assay [4], the “CBP Degradation DCmax” value is “A (A (≥90%))” and the DC50 was less than 0.0001 µM. For the same molecule, in assay [5], the DC50 was less than 0.0001 µM and the “P300 Degradation DCmax” value is “A (A (≥90%))”.
